Measurements published in patent US20160244405A1, “COMPOSITIONS AND METHODS FOR THE TREATMENT OF HYPERGLYCEMIA AND METABOLIC SYNDROME” (priority 2015, published 2016).
Converted amounts (≈) assume the structure as drawn. Where two headings read alike, the source gives them in different places.

Assay: Water solubility by adding distilled water in portions until a clear solution
Type: physicochemical
Details: thermodynamic from solid
Procedure: The Solubility of the Compound of amino(3,3-dimethylguanidino)methaniminium (S)-2-((5Z,8Z,11Z,14Z,17Z)-icosa-5,8,11,14,17-pentaenamido)-4-methylpentanoate, Example-1 in Water was Compared with that of Eicosapentaenoic Acid (EPA) Measurement of the water solubility of the test compound was accomplished by using methods well known to those skilled in the art. Specifically, to a weighed amount of the test compounds of Example-1 and EPA were taken in separate vials; distilled water was added in small portions until a clear solution was obtained. The water solubility is calculated by dividing the weight of salt, in mg, by the volume of the solution, in mL. The water solubility of the compounds of example-1 compared to EPA alone were as follows: […]

solubility (distilled water, weight of salt in mg divided by volume of solution in mL, read-out: water solubility) [mg/mL] | Compound | solubility (water) [mg/mL]
< 0.3 | CC/C=C\C/C=C\C/C=C\C/C=C\C/C=C\CCCC(=O)O [EPA, eicosapentaenoic acid] | –
– | CC/C=C\C/C=C\C/C=C\C/C=C\C/C=C\CCCC(=O)N[C@@H](CC(C)C)C(=O)O [Example-1, amino(3,3-dimethylguanidino)methaniminium (S)-2-((5Z,8Z,11Z,14Z,17Z)-icosa-5,8,11,14,17-pentaenamido)-4-methylpentanoate] | 118 (≈ 284 mM)
